Experimental findings from US12662451B2, “Chemical compounds and uses thereof” (GLAXOSMITHKLINE INTELLECTUAL PROPERTY (NO.4) LIMITED, priority 2023, dated 2026) are described below.

In assay [1] the target is T1, recombinant full-length WRN protein (1-1432) (Homo sapiens, UniProt Q14191).
T1 construct: recombinant full-length WRN protein (1-1432)
As to the kind of experiment: WRN unwinding activity, fluorogenic 384-well assay (Example A). The class given is biochemical. Particulars: WRN unwinding activity, 4 hr; Table 2; read-out: 4 hr UNW pIC50 (converted). The essentials: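 200 pM enzyme (2× stock) preincubated with compound 4 h at ambient temperature, then 200 μM ATP and 12 nM quenched TAMRA-labelled dsDNA (2× stocks) added for 60 min; EDTA-quenched. Buffer 25 mM Tris pH 8.0, 5 mM NaCl, 2 mM MgCl2. Fluorescence at 525/598 nm; pIC50 from four-parameter fit.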

The test system of assay [2] is SW48 human colorectal cancer cells (MSI-H cancer cells). As to the kind of experiment: SW48 cell viability, CellTiter-Glo, 120 hours (Example B). Particulars: Homo sapiens, SW48, 120 h, read-out: SW48 pCC50, SW48 cell viability, 120 hours incubation (converted); Table 2. For orientation: Cellular ATP, detected with luciferase, serves as a proxy for viable cell number.

T1 sequence (Q14191 whole entry): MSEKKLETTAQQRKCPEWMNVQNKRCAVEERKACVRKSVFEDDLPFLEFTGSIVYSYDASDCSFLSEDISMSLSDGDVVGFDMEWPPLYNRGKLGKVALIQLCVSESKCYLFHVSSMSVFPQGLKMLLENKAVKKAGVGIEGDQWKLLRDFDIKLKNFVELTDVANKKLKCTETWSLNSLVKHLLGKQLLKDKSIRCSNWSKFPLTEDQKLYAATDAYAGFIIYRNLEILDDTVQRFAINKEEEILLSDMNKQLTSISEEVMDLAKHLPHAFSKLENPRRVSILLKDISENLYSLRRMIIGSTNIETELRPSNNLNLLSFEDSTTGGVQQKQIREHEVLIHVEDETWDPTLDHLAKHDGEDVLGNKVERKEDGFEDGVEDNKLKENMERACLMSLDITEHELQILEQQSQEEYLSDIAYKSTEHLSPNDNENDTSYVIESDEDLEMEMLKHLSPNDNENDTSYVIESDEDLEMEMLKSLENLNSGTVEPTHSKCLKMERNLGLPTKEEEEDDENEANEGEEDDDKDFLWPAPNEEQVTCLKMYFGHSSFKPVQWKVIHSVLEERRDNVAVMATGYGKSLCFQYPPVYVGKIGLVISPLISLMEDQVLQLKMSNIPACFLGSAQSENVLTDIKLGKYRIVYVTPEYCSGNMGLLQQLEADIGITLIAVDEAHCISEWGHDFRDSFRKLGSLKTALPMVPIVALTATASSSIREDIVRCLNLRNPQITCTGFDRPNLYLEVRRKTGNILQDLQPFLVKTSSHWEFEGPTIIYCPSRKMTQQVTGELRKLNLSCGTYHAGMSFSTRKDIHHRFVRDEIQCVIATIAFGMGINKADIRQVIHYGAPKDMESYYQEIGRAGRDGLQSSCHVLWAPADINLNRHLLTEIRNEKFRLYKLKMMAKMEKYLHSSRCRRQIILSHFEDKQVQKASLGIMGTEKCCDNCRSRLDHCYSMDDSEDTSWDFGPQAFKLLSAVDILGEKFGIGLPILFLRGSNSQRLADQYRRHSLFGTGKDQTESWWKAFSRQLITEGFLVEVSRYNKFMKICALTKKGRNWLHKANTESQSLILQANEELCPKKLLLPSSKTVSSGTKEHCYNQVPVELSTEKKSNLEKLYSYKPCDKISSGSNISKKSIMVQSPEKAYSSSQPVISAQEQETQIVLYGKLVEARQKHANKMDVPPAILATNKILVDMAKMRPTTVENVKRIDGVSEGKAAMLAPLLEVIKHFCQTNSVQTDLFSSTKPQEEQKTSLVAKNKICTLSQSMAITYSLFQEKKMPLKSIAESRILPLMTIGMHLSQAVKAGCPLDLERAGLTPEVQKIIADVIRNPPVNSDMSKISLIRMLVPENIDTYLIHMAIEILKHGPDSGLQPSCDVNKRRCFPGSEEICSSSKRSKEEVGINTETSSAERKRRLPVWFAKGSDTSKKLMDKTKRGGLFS

Regarding `O=C(O)[C@@H]1[C@@H](c2ccc([C@H]3CCC(F)(F)C3)cc2)CCC[C@H]1C(=O)Nc1ccc(C(F)(F)F)cc1F` (racemic) [Example 64, 1:1 Mixture of (1R,2S,6R)-2-(4-((S)-3,3-difluorocyclopentyl)phenyl)-6-((2-fluoro-4-(trifluoromethyl)phenyl)carbamoyl)cyclohexane-1-carboxylic acid AND (1R,2S,6R)-2-(4-((R)-3,3-difluorocyclopentyl)phenyl)-6-((2-fluoro-4-(trifluoromethyl)phenyl)carbamoyl)cyclohexane-1-carboxylic acid], the IC50 in assay [1] was 25.1 nM. Moreover, the CC50 in assay [2] was 15800 nM.

Regarding `Cc1nc2cc(S(=O)(=O)N(C)c3ccc([C@H]4CCC[C@@H](C(=O)Nc5ccc(C(C)C)cc5)[C@H]4C(=O)O)cc3)ccc2n1C` (racemic) [Example 75, rac-(1R,2S,6R)-2-((4-isopropylphenyl)carbamoyl)-6-(4-((N,1,2-trimethyl-1H-benzo[d]imidazole)-5-sulfonamido)phenyl)cyclohexane-1-carboxylic acid], the IC50 in assay [1] is 6.31 nM. Also, the CC50 in assay [2] was 5010 nM.

On to `Cc1nc2cc(S(=O)(=O)N(C)c3ccc([C@H]4CCC[C@@H](C(=O)Nc5ccc(C(C)C)cc5)[C@@H]4C(=O)O)cc3)ccc2n1C` (racemic) [Example 78, rac-(1R,2R,6S)-2-((4-isopropylphenyl)carbamoyl)-6-(4-((N,1,2-trimethyl-1H-benzo[d]imidazole)-5-sulfonamido)phenyl)cyclohexane-1-carboxylic acid], for which, in assay [1], the IC50 was 2 nM. In addition, in assay [2], the CC50 is 1000 nM.

For `Cc1nc2cc(S(=O)(=O)N(C)c3ccc([C@H]4CCC[C@@H](C(=O)Nc5ccc(C(F)(F)F)cc5F)[C@@H]4C(=O)O)cc3)ccc2n1C` (racemic) [Example 81, rac-(1R,2R,6S)-2-((2-fluoro-4-(trifluoromethyl)phenyl)carbamoyl)-6-(4-((N,1,2-trimethyl-1H-benzo[d]imidazole)-5-sulfonamido)phenyl)cyclohexane-1-carboxylic acid], the IC50 in assay [1] is 7.94 nM. In addition, the CC50 in assay [2] is 1260 nM.

For `C=C(F)C(=O)Nc1ccc([C@H]2CCC[C@@H](C(=O)Nc3ccc(C(F)(F)F)cc3F)[C@@H]2C(=O)O)cc1` (racemic) [Example 227, rac-(1R,2R,6S)-2-((2-fluoro-4-(trifluoromethyl)phenyl)carbamoyl)-6-(4-(2-fluoroacrylamido)phenyl)cyclohexane-1-carboxylic acid], in assay [1], the IC50 is 79.4 nM. The CC50 in assay [2] is 15800 nM.

As to `Cc1nc2cc(S(=O)(=O)N(C)c3ccc([C@H]4COC[C@@H](C(=O)Nc5ccc(C(F)(F)F)cc5F)[C@@H]4C(=O)O)cc3)ccc2n1C` (racemic) [Example 232, rac-(3R,4S,5R)-3-((2-fluoro-4-(trifluoromethyl)phenyl)carbamoyl)-5-(4-((N,1,2-trimethyl-1H-benzo[d]imidazole)-5-sulfonamido)phenyl)tetrahydro-2H-pyran-4-carboxylic acid], the IC50 in assay [1] is 1.58 nM. The CC50 in assay [2] is 1260 nM.

For `Cc1nc2cc(S(=O)(=O)N(C)c3ccc([C@H]4C[C@@](C)(O)C[C@@H](C(=O)Nc5ccc(C(F)(F)F)cc5F)[C@@H]4C(=O)O)cc3)ccc2n1C` (racemic) [Example 356, rac-(1R,2R,4R,6S)-2-((2-fluoro-4-(trifluoromethyl)phenyl)carbamoyl)-4-hydroxy-4-methyl-6-(4-((N,1,2-trimethyl-1H-benzo[d]imidazole)-5-sulfonamido)phenyl)cyclohexane-1-carboxylic acid], in assay [1], the IC50 was 12.6 nM. For the same compound, in assay [2], the CC50 was 1260 nM.

As for `Cc1nc2cc(S(=O)(=O)N(C)c3ccc([C@H]4C[C@](C)(O)C[C@@H](C(=O)Nc5ccc(C(F)(F)F)cc5F)[C@@H]4C(=O)O)cc3)ccc2n1C` (racemic) [Example 357, rac-(1R,2R,4S,6S)-2-((2-fluoro-4-(trifluoromethyl)phenyl)carbamoyl)-4-hydroxy-4-methyl-6-(4-((N,1,2-trimethyl-1H-benzo[d]imidazole)-5-sulfonamido)phenyl)cyclohexane-1-carboxylic acid], in assay [1], the IC50 is 10 nM. In assay [2], the CC50 is 1000 nM.

In the case of `CCO[C@@H]1CC[C@@H](C(=O)Nc2ccc(C(F)(F)F)cc2F)[C@H](C(=O)O)[C@H]1c1ccc(N(C)S(=O)(=O)c2ccc3c(c2)nc(C)n3C)cc1` (racemic) [Example 371, rac-(1R,2S,3R,6R)-3-ethoxy-6-((2-fluoro-4-(trifluoromethyl)phenyl)carbamoyl)-2-(4-((N,1,2-trimethyl-1H-benzo[d]imidazole)-5-sulfonamido)phenyl)cyclohexane-1-carboxylic acid], the IC50 in assay [1] is 6.31 nM. Also, in assay [2], the CC50 was 1000 nM.

Regarding `[2H]C([2H])([2H])O[C@@H]1C[C@H](C(=O)Nc2ccc(C(F)(F)F)cc2F)[C@@H](C(=O)O)[C@H](c2ccc(N(C)S(=O)(=O)c3ccc4c(c3)nc(C)n4C)cc2)C1` (relative stereo) [Example 149, rel-(1R,2R,4R,6S)-2-((2-fluoro-4-(trifluoromethyl)phenyl)carbamoyl)-4-methoxy-6-(4-((N,1,2-trimethyl-1H-benzo[d]imidazole)-5-sulfonamido)phenyl)cyclohexane-1-carboxylic acid], the IC50 in assay [1] was 1.58 nM. Also, the CC50 in assay [2] was 200 nM.

Regarding `CCO[C@@H]1C[C@H](C(=O)Nc2ccc(C(F)(F)F)cn2)[C@@H](C(=O)O)[C@H](c2ccc(N(C)S(=O)(=O)c3ccc4c(c3)nc(C)n4C)cc2)C1` (relative stereo) [Example 156, rel-(1R,2R,4R,6S)-4-ethoxy-2-((5-(trifluoromethyl)pyridin-2-yl)carbamoyl)-6-(4-((N,1,2-trimethyl-1H-benzo[d]imidazole)-5-sulfonamido)phenyl)cyclohexane-1-carboxylic acid], in assay [1], the IC50 is 126 nM. For the same compound, the CC50 in assay [2] is 25100 nM.

As for `Cc1nc2cc(S(=O)(=O)N(C)c3ccc([C@H]4CCC[C@@H](C(=O)N[C@@H]5CCC[C@@H](C(F)(F)F)C5)[C@@H]4C(=O)O)cc3)ccc2n1C` [Example 192, (1R,2R,6S)-2-(((1R,3R)-3-(trifluoromethyl)cyclohexyl)carbamoyl)-6-(4-((N,1,2-trimethyl-1H-benzo[d]imidazole)-5-sulfonamido)phenyl)cyclohexane-1-carboxylic acid], the IC50 in assay [1] is 39800 nM.

With `Cc1nc2cc(S(=O)(=O)N(C)c3ccc([C@H]4CCC[C@@H](C(=O)N[C@]56CC[C@H](CC5)C6)[C@@H]4C(=O)O)cc3)ccc2n1C` [Example 193, (1R,2R,6S)-2-(((1r,4R)-bicyclo[2.2.1]heptan-1-yl)carbamoyl)-6-(4-((N,1,2-trimethyl-1H-benzo[d]imidazole)-5-sulfonamido)phenyl)cyclohexane-1-carboxylic acid], the IC50 in assay [1] is 20000 nM.

As for `CCC[C@H]1CC[C@@H](NC(=O)[C@@H]2CCC[C@H](c3ccc(N(C)S(=O)(=O)c4ccc5c(c4)nc(C)n5C)cc3)[C@H]2C(=O)O)CC1` [Example 195, (1R,2R,6S)-2-(((1r,4R)-4-propylcyclohexyl)carbamoyl)-6-(4-((N,1,2-trimethyl-1H-benzo[d]imidazole)-5-sulfonamido)phenyl)cyclohexane-1-carboxylic acid], the IC50 in assay [1] is 20 nM.

As to `Cc1nc2cc(S(=O)(=O)N(C)c3ccc([C@H]4CCC[C@@H](C(=O)N[C@H]5CCCC[C@@H]5C)[C@@H]4C(=O)O)cc3)ccc2n1C` [Example 197, (1R,2R,6S)-2-(((1S,2S)-2-methylcyclohexyl)carbamoyl)-6-(4-((N,1,2-trimethyl-1H-benzo[d]imidazole)-5-sulfonamido)phenyl)cyclohexane-1-carboxylic acid], the IC50 in assay [1] was 2510 nM.

`Cc1nc2cc(S(=O)(=O)N(C)c3ccc([C@H]4CCC[C@@H](C(=O)NC56CC(C7CCC7)(C5)C6)[C@@H]4C(=O)O)cc3)ccc2n1C` [Example 198, (1R,2R,6S)-2-((3-cyclobutylbicyclo[1.1.1]pentan-1-yl)carbamoyl)-6-(4-((N,1,2-trimethyl-1H-benzo[d]imidazole)-5-sulfonamido)phenyl)cyclohexane-1-carboxylic acid]: the IC50 in assay [1] was 5.01 nM.

With `Cc1nc2cc(S(=O)(=O)N(C)c3ccc([C@H]4CCC[C@@H](COc5ccc(C(F)(F)F)cc5)[C@@H]4C(=O)O)cc3)ccc2n1C` [Example 205, (1R,2R,6S)-2-((4-(trifluoromethyl)phenoxy)methyl)-6-(4-((N,1,2-trimethyl-1H-benzo[d]imidazole)-5-sulfonamido)phenyl)cyclohexane-1-carboxylic acid], the IC50 in assay [1] is 25.1 nM.

Turning to `C#CC(=O)N(C)c1ccc([C@H]2CCC[C@@H](C(=O)Nc3ccc(C(F)(F)F)cc3F)[C@@H]2C(=O)O)cc1` [Example 229, (1R,2R,6S)-2-((2-fluoro-4-(trifluoromethyl)phenyl)carbamoyl)-6-(4-(N-methylpropiolamido)phenyl)cyclohexane-1-carboxylic acid], the IC50 in assay [1] was 316 nM.

Consider `CN(c1ccc([C@H]2CCC[C@@H](C(=O)Nc3ccc(C(F)(F)F)cc3F)[C@@H]2C(=O)O)cc1)S(=O)(=O)c1ccc(C=O)c(O)c1` [Example 276, (1R,2R,6S)-2-((2-fluoro-4-(trifluoromethyl)phenyl)carbamoyl)-6-(4-((4-formyl-3-hydroxy-N-methylphenyl)sulfonamido)phenyl)cyclohexane-1-carboxylic acid], for which the IC50 in assay [1] was 6.31 nM.

Regarding `Cc1nc2cc(S(=O)(=O)N(C)c3ccc([C@@H]4C[C@H](N5CCC(F)(F)C5)C[C@H](C(=O)Nc5ccc(C(F)(F)F)cc5F)[C@H]4C(=O)O)cc3)ccc2n1C` [Example 305, (1S,2S,4S,6R)-4-(3,3-difluoropyrrolidin-1-yl)-2-((2-fluoro-4-(trifluoromethyl)phenyl)carbamoyl)-6-(4-((N,1,2-trimethyl-1H-benzo[d]imidazole)-5-sulfonamido)phenyl)cyclohexane-1-carboxylic acid], the IC50 in assay [1] was 316 nM.
